The record followed here is article PMC11923649, “Novel C-2 Aromatic Heterocycle-Substituted Triterpenoids Inhibit Hedgehog Signaling in GLI1 Overexpression Cancer Cells” (ACS Omega, 2025).

Assay [1] relates to A549 (lung adenocarcinoma). Kind of assay: MTS cytotoxicity assay, 72 h, A549. The class given is cell-based. As to conditions: Homo sapiens, A549, 72 h. The procedure:
(§1) Based on the preliminary results and tests of a larger library of known triterpenoids, a small set of 2-substituted lupane and 18α-oleanane derivatives was designed and synthesized. As the first step, the cytotoxic activity of the synthesized derivatives was assessed using an MTS assay following 72 h of treatment (Table 1). Selected cell lines A549 (lung adenocarcinoma) and DU-145 (prostate cancer) are both dependent on Hh signaling. In addition, K562 (chronic myelogenous leukemia) was included as a cell line sensitive to Hh inhibitors[32] and a type of hematological malignancy with active Hh signaling.[33] MRC-5 lung fibroblasts and BJ human skin fibroblasts cell lines were used to evaluate the toxicity against nontumor cells. Compounds were also tested using the standard panel of other cancer cell lines, as described in our earlier work (Table 1).[27]
(§2) The human prostate tumor-derived cell line DU145 was obtained from ATCC (American Type Culture Collection) and cultured in RPMI 1640 (Roswell Park Memorial Institute) medium supplemented with 10% (v/v) fetal bovine serum (FBS). Human prostate tumor-derived LNCaP cells were obtained from ATCC and cultured in RPMI 1640 medium supplemented with 10% FBS. The human nonsmall cell lung carcinoma (NSCLC)-derived cell line HOP-62 was obtained from the DSMZ (German Collection of Microorganisms and Cell Cultures) and cultured in RPMI 1640 medium supplemented with 10% FBS. The human nonsmall cell lung carcinoma-derived cell line NCI-H322 was obtained from ECACC (European Collection of Authenticated Cell Cultures) and cultured in RPMI 1640 medium supplemented with 10% FBS. The human nonsmall cell lung carcinoma-derived cell line NCI-H522 was obtained from ATCC and cultured in RPMI 1640 medium supplemented with 10% FBS. The human lung tumor-derived cell line A549 was obtained from ATCC and cultured in Dulbecco’s Modified Eagle’s Medium (DMEM) supplemented with 10% FBS. The human medulloblastoma-derived cell line DAOY was obtained from ATCC and cultured in Eagle’s Minimum Essential Medium (EMEM) supplemented with 10% FBS. The human glioblastoma-derived cell line T98G was obtained from ATCC and cultured in EMEM medium supplemented with 10% FBS, 1 mmol/L sodium pyruvate, and 1 mmol/L nonessential amino acid mixture. All the above-mentioned cell lines were cultured at 37 °C in an atmosphere of 5% CO2 with 95% humidity. The cytotoxicity MTS assays were performed using MTS (3-(4,5-dimethylthiazol-2-yl)-5-(3-carboxymethoxyphenyl)-2-(4-sulfophenyl)-2H-tetrazolium) tetrazolium salt. Briefly, cells were seeded in a 384-well transparent plate in a volume of 25 μL and a concentration of 15,000 cells/mL (DU145, LNCaP, HOP-62, A549, DAOY, T98G) or 30,000 cells/mL (NCI-H322, NCI-H522). The next day, cells were exposed to compounds in a concentration range of 50–0.0975 μmol/L (dilution factor 2) and cultured in the presence of the compounds for 72 h. After 72 h, 5 μL of MTS/phenazine methosulfate solution was pipetted into each well and incubation continued for 1–4 h. Finally, the absorbance at 490 nm was measured using an EnVision multifunctional modular reader (PerkinElmer). The IC50 value was determined using Dotmatics software.
(In general: Formazan colour is commonly taken as a measure of viable cells.)

Another assay concerns DU-145 (prostate cancer). Kind of assay: MTS cytotoxicity assay, 72 h, DU-145. Format: cell-based, human. Particulars: Homo sapiens, DU-145, 72 h. The procedure: as §1, §2
Assay [2] relates to K562 (chronic myelogenous leukemia). Kind of assay: MTS cytotoxicity assay, 72 h, K562. Particulars: Homo sapiens. The class given is cell-based. The procedure:
as §1, §2

In the next assay the test system is K562-TAX. Kind of assay: MTS cytotoxicity assay, 72 h, K562-TAX. The class given is cell-based. On the procedure:
as §1, §2

Another assay has as its system HCT 116. Kind of assay: MTS cytotoxicity assay, 72 h, HCT 116. Format: cell-based. As to conditions: Homo sapiens, HCT-116, 72 h. On the procedure: as §1, §2
Another assay deals with HCT116 p53–/–. Put plainly: MTS cytotoxicity assay, 72 h, HCT116 p53–/–. Format: cell-based. Particulars: Homo sapiens, HCT-116, 72 h. On the procedure: as §1, §2
A further assay deals with U2OS. Kind of assay: MTS cytotoxicity assay, 72 h, U2OS. The class given is cell-based. As to conditions: Homo sapiens. On the procedure:
as §1, §2

The test system of another assay is CCRF-CEM. Put plainly: MTS cytotoxicity assay, 72 h, CCRF-CEM. Format: cell-based. As to conditions: for IC50: Homo sapiens, CCRF-CEM, 72 h, MTS. The procedure:
as §1, §2

The test system of another assay is CEM-DNR. Put plainly: MTS cytotoxicity assay, 72 h, CEM-DNR. Particulars: Homo sapiens. Format: cell-based. The procedure:
as §1, with “1).[27] […]” for “1).[27]”

The subject of assay [3] is BJ human skin fibroblasts. Kind of assay: MTS cytotoxicity assay, 72 h, BJ fibroblasts. Particulars: Homo sapiens, Skin fibroblast, normal fibroblasts. The class given is cell-based. On the procedure:
as §1, §2

In another assay the test system is MRC-5 lung fibroblasts. Kind of assay: MTS cytotoxicity assay, 72 h, MRC-5 fibroblasts. The class given is cell-based, human. As to conditions: Homo sapiens, MRC5, 72 h, normal fibroblasts. On the procedure:
as §1, §2

[4] abbreviates: CCRF-CEM vs average of BJ and MRC-5, full Table S1.

The term IC50 denotes the point on the concentration scale where inhibition reaches its midpoint. High values mean weaker potency in that assay, low ones greater potency in that assay.

For the compound `CC1(C)C(=O)C(c2ccoc2)=C[C@@]2(C)C1CC[C@]1(C)C2CCC2C3[C@H]4OC[C@@]3(CCC4(C)C)CC[C@]21C` (stereo partly drawn) [Compound 4b, 2-(Furan-3-yl)-19β,28-epoxyolean-1-en-3-one], the IC50 (in assay [1] (full Table S1); in the assay on DU-145 (prostate cancer) (full Table S1); in [2] (full Table S1); with K562-TAX (full Table S1); in the assay with HCT 116 (full Table S1); in the assay with HCT116 p53–/– (full Table S1)) was above 50 µM throughout. The IC50 (in the assay on U2OS (full Table S1); with CCRF-CEM (full Table S1); in the assay with CEM-DNR (full Table S1); in assay [3] (full Table S1); with MRC-5 lung fibroblasts (full Table S1)) was above 50 µM each time. The “SI (selectivity index)” value in the assay with CCRF-CEM (setting [4]) is on record as above 1.0.

Turning to `CC1(C)C(=O)C(c2cncc3ccccc23)=C[C@@]2(C)C1CC[C@]1(C)C2CCC2C3[C@H]4OC[C@@]3(CCC4(C)C)CC[C@]21C` (stereo partly drawn) [Compound 4l, 2-(Isoquinolin-4-yl)-19β,28-epoxyolean-1-en-3-one], the IC50 in assay [1] (Table 1) was above 50 µM; with DU-145 (prostate cancer) (Table 1), 32 µM; in the assay on DU-145 (prostate cancer) (full Table S1), 32.1 µM; in assay [2] (Table 1) it was above 50 µM; with K562-TAX (Table 1), above 50 µM; in the assay with HCT 116 (Table 1), above 50 µM. Further, the IC50 (in the assay with HCT116 p53–/– (Table 1); in the assay on U2OS (Table 1); in the assay on CCRF-CEM (Table 1); in the assay on CEM-DNR (Table 1); in assay [3] (Table 1); in the assay on MRC-5 lung fibroblasts (Table 1)) was above 50 µM throughout.

Regarding `CC1(C)C(=O)C(c2ccncc2)=C[C@@]2(C)C1CC[C@]1(C)C2CCC2C3[C@H]4OC[C@@]3(CCC4(C)C)CC[C@]21C` (stereo partly drawn) [Compound 4h, 2-(Pyridine-4-yl)-19β,28-epoxyolean-1-en-3-one], the IC50 in assay [1] (Table 1) was above 50 µM; with DU-145 (prostate cancer) (Table 1), 22 µM; in the assay on DU-145 (prostate cancer) (full Table S1), 22.1 µM; in assay [2] (Table 1), above 50 µM; in the assay on K562-TAX (Table 1), 18 µM; in the assay with K562-TAX (full Table S1), 18.1 µM. Also, the IC50 in the assay on HCT 116 (Table 1) is above 50 µM; in the assay with HCT116 p53–/– (Table 1), above 50 µM; in the assay on U2OS (Table 1), above 50 µM; with CCRF-CEM (Table 1) it was 19 µM; with CCRF-CEM (full Table S1) it was 18.7 µM; in the assay on CEM-DNR (Table 1) it was 19 µM. The IC50 (in [3] (Table 1); in the assay on MRC-5 lung fibroblasts (Table 1)) was above 50 µM throughout. Moreover, the “SI (selectivity index)” value in the assay with CCRF-CEM (IC50 of CCRF-CEM line vs average of both fibroblasts (BJ and MRC-5), Table 1) is reported as above 2.7.

With `C=C(C)[C@@H]1CC[C@]2(C(=O)OCc3ccccc3)CC[C@]3(C)C(CCC4[C@@]5(C)C=C(c6cc7ccccc7s6)C(=O)C(C)(C)C5CC[C@]43C)C12` (stereo partly drawn) [Compound 10k, Benzyl 2-(Benzo[b]thien-2-yl)-3-oxolupa-1,20(29)-dien-28-oate], the IC50 (in assay [1] (full Table S1); with DU-145 (prostate cancer) (full Table S1); in [2] (full Table S1); with K562-TAX (full Table S1); in the assay on HCT 116 (full Table S1); in the assay on HCT116 p53–/– (full Table S1)) was above 50 µM throughout. The IC50 (in the assay with U2OS (full Table S1); in the assay with CCRF-CEM (full Table S1); in the assay on CEM-DNR (full Table S1); in assay [3] (full Table S1); in the assay on MRC-5 lung fibroblasts (full Table S1)) was above 50 µM each time. The “SI (selectivity index)” value in the assay with CCRF-CEM (setting [4]) is reported as above 1.0.

`CC1(C)C(=O)C(c2ccc(Cl)s2)=C[C@@]2(C)C1CC[C@]1(C)C2CCC2C3[C@H]4OC[C@@]3(CCC4(C)C)CC[C@]21C` (stereo partly drawn) [Compound 4e, 2-(5-Chlorothiophen-2-yl)-19β,28-epoxyolean-1-en-3-one]: the IC50 (in assay [1] (full Table S1); in the assay with DU-145 (prostate cancer) (full Table S1); in assay [2] (full Table S1); with K562-TAX (full Table S1); in the assay with HCT 116 (full Table S1); in the assay with HCT116 p53–/– (full Table S1)) was above 50 µM each time. In addition, the IC50 (with U2OS (full Table S1); with CCRF-CEM (full Table S1); in the assay on CEM-DNR (full Table S1); in assay [3] (full Table S1); with MRC-5 lung fibroblasts (full Table S1)) was above 50 µM throughout. In addition, the “SI (selectivity index)” value in the assay with CCRF-CEM (setting [4]) is above 1.0.

Take `CC1(C)C(=O)C(c2cccs2)=C[C@@]2(C)C1CC[C@]1(C)C2CCC2C3[C@H]4OC[C@@]3(CCC4(C)C)CC[C@]21C` (stereo partly drawn) [Compound 4c, 2-(Thiophene-2-yl)-19β,28-epoxyolean-1-en-3-one]: the IC50 (in [1] (full Table S1); in the assay on DU-145 (prostate cancer) (full Table S1); in assay [2] (full Table S1); in the assay on K562-TAX (full Table S1); with HCT 116 (full Table S1); in the assay on HCT116 p53–/– (full Table S1)) was above 50 µM throughout. The IC50 (in the assay with U2OS (full Table S1); in the assay with CCRF-CEM (full Table S1); in the assay on CEM-DNR (full Table S1); in [3] (full Table S1); with MRC-5 lung fibroblasts (full Table S1)) was above 50 µM in each case. In the assay with CCRF-CEM (setting [4]), the “SI (selectivity index)” value is above 1.0.

Take `C=C(C)[C@@H]1CC[C@]2(C(=O)OCc3ccccc3)CC[C@]3(C)C(CCC4[C@@]5(C)C=C(c6cncc7ccccc67)C(=O)C(C)(C)C5CC[C@]43C)C12` (stereo partly drawn) [Compound 10l, Benzyl 2-(4-Isoquinoline)-3-oxolupa-1,20(29)-dien-28-oate]: the half-maximal inhibitory concentration (IC50) (in assay [1] (full Table S1); in the assay on DU-145 (prostate cancer) (full Table S1); in [2] (full Table S1); with K562-TAX (full Table S1); with HCT 116 (full Table S1); in the assay with HCT116 p53–/– (full Table S1)) was above 50 µM in each case. The IC50 (in the assay with U2OS (full Table S1); in the assay on CCRF-CEM (full Table S1); with CEM-DNR (full Table S1); in assay [3] (full Table S1); with MRC-5 lung fibroblasts (full Table S1)) was above 50 µM each time. For the same compound, in the assay with CCRF-CEM (setting [4]), the “SI (selectivity index)” value is above 1.0.

As to `CC1(C)C(=O)C(c2cc3ccccc3s2)=C[C@@]2(C)C1CC[C@]1(C)C2CCC2C3[C@H]4OC[C@@]3(CCC4(C)C)CC[C@]21C` (stereo partly drawn) [Compound 4k, 2-(Benzo[b]thien-2-yl)-19β,28-epoxyolean-1-en-3-one], the IC50 (in assay [1] (full Table S1); with DU-145 (prostate cancer) (full Table S1); in assay [2] (full Table S1); in the assay on K562-TAX (full Table S1); with HCT 116 (full Table S1); with HCT116 p53–/– (full Table S1)) was above 50 µM in each case. In addition, the IC50 (with U2OS (full Table S1); with CCRF-CEM (full Table S1); in the assay on CEM-DNR (full Table S1); in [3] (full Table S1); with MRC-5 lung fibroblasts (full Table S1)) was above 50 µM in each case. The “SI (selectivity index)” value with CCRF-CEM (setting [4]) is above 1.0.
